According to patent US11965039B2, “Compstatin analogues and their medical uses” (priority 2018, dated 2024):
Positions of bridges follow the written chain, without caps; N, C: chain ends. Non-standard residues stand in square brackets, D forms with d. Residues, ends and D or L forms follow the SMILES beside them. Trp(1-Me) = Cn1cc(C[C@H](N)C(=O)O)c2ccccc21; 1Nal = N[C@@H](Cc1cccc2ccccc12)C(=O)O; Sar = CNCC(=O)O

Tests used:
[1] = system: classical complement pathway; experiment: In vitro haemolysis assay (inhibition of classical complement pathway); type: cell-based, human; settings: human serum, sensitized sheep red blood cells; Table 3, given as upper bounds; read-out: IC50, inhibition of hemolysis
How it was run: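 Compound dilutions preincubated 15 min at room temperature with diluted human serum (titrated per batch for 70-90% maximal haemolysis), then antibody-sensitized sheep RBC (10^7/well) added for 30 min at 37 °C in Tris/casein buffer, pH 7.4. Stopped with EDTA; haemolysis read at 405 nm; IC50 by 4PL fit.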

[2] = Solubility test at 10 mg/mL (visual inspection and light scattering); type: physicochemical; settings: for Solubility, Condition 1: Acetate pH 4; for Solubility, Condition 2: Acetate pH 5; for Solubility, Condition 3: Phosphate pH 6; for Solubility, Condition 4: Phosphate pH 7; for Solubility, Condition 5: Phosphate pH 7.5
Protocol: The solubility of compounds was assessed by measuring light scattering over a pH interval from pH 4 to pH 7.5.
Compounds were dissolved in a stock solution of 20 mg/mL in H2O at pH 2.5 or pH 10. These stock solutions were diluted 1:1 with 200 mM buffered solution to reach a final solution of 10 mg/mL compound in 100 mM buffer. The 5 investigated conditions were (1) acetate pH 4.0, (2) acetate pH 5.0, (3) phosphate pH 6.0, (4) phosphate pH 7 and (5) phosphate pH 7.5.
Visual inspection included manually checking the 96 well plate for wells that are clear or non-clear. In addition to this a picture of the 96 well plate is taken.
Absorbance was measured at four wavelengths: 280 nm, 325 nm, 340 nm and 360 nm in an UV transparent 96 well microplate in a SpectraMax 190 microplate reader (Molecular Devices).
The criteria for this was a combination of visual inspection and light scattering not exceeding 0.1 AU, where values below 0.1 AU are good in visually clear samples.

| Structure (SMILES) | IC50 [1] [nM] | Solubility, Condition 1 [2] | Solubility, Condition 2 [2] | Solubility, Condition 3 [2] | Solubility, Condition 4 [2] | Solubility, Condition 5 [2] |
| --- | --- | --- | --- | --- | --- | --- |
| CC[C@H](C)[C@@H]1NC(=O)[C@@H](NC(=O)[C@H](Cc2ccccc2)NC(=O)[C@H](C)NC(=O)[C@H](CO)NC(=O)CNC(=O)[C@H](CCC(=O)O)NC(C)=O)CSSC[C@@H](C(=O)N(C)CC(=O)N[C@@H](CCC(=O)O)C(N)=O)NC(=O)[C@H](CCCNC(=N)N)NC(=O)[C@H](Cc2c[nH]cn2)NC(=O)[C@H](CCC(=O)O)NC(=O)CNC(=O)[C@H](Cc2c[nH]c3ccccc23)NC(=O)[C@H](CC(=O)O)NC(=O)[C@H](CCC(N)=O)NC(=O)[C@H](Cc2c[nH]c3ccccc23)NC1=O [Compound 45] (Ac-EGSAFCIWQDWGEHRC[Sar]E-NH2; disulfide 6-16) | < 100 | − (“−” denotes lack of solubility at the given condition, as UV absorbance at 340 nm exceeds 0.1 AU and/or it is visibly turbid or contains particles) | + (“+” denotes solubility at the given condition, as determined by UV absorbance being less than 0.1 AU at 340 nm and the sample being clear when manually inspected) | + (“+” denotes solubility at the given condition, as determined by UV absorbance being less than 0.1 AU at 340 nm and the sample being clear when manually inspected) | + (“+” denotes solubility at the given condition, as determined by UV absorbance being less than 0.1 AU at 340 nm and the sample being clear when manually inspected) | + (“+” denotes solubility at the given condition, as determined by UV absorbance being less than 0.1 AU at 340 nm and the sample being clear when manually inspected) |
| CC[C@H](C)[C@@H]1NC(=O)[C@@H](NC(=O)[C@H](Cc2ccccc2)NC(C)=O)CSSC[C@@H](C(=O)N[C@H](C(=O)NCC(=O)N[C@@H](C)C(=O)N[C@@H](CCC(=O)O)C(=O)N[C@@H](CO)C(N)=O)[C@@H](C)O)NC(=O)[C@H](CCCNC(=N)N)NC(=O)[C@H](Cc2c[nH]cn2)NC(=O)[C@H](CCC(=O)O)NC(=O)CNC(=O)[C@H](Cc2c[nH]c3ccccc23)NC(=O)[C@H](CC(=O)O)NC(=O)[C@H](CCC(N)=O)NC(=O)[C@H](Cc2cccc3ccccc23)NC1=O [Compound 63] (Ac-FCI[1Nal]QDWGEHRCTGAES-NH2; disulfide 2-12) | < 100 | − (“−” denotes lack of solubility at the given condition, as UV absorbance at 340 nm exceeds 0.1 AU and/or it is visibly turbid or contains particles) | − (“−” denotes lack of solubility at the given condition, as UV absorbance at 340 nm exceeds 0.1 AU and/or it is visibly turbid or contains particles) | + (“+” denotes solubility at the given condition, as determined by UV absorbance being less than 0.1 AU at 340 nm and the sample being clear when manually inspected) | + (“+” denotes solubility at the given condition, as determined by UV absorbance being less than 0.1 AU at 340 nm and the sample being clear when manually inspected) | + (“+” denotes solubility at the given condition, as determined by UV absorbance being less than 0.1 AU at 340 nm and the sample being clear when manually inspected) |
| CC[C@H](C)[C@@H]1NC(=O)[C@@H](NC(=O)[C@@H](NC(=O)[C@H](CCC(=O)O)NC(=O)[C@H](CO)NC(=O)[C@H](CCC(=O)O)NC(C)=O)[C@@H](C)CC)CSSC[C@@H](C(=O)N[C@H](C(N)=O)[C@@H](C)O)NC(=O)[C@H](CCCNC(=N)N)NC(=O)[C@H](Cc2c[nH]cn2)NC(=O)[C@H](CCC(=O)O)NC(=O)CNC(=O)[C@H](Cc2c[nH]c3ccccc23)NC(=O)[C@H](CC(=O)O)NC(=O)[C@H](CCC(N)=O)NC(=O)[C@H](Cc2c[nH]c3ccccc23)NC1=O [Compound 31] (Ac-ESEICIWQDWGEHRCT-NH2; disulfide 5-15) | < 100 | + (“+” denotes solubility at the given condition, as determined by UV absorbance being less than 0.1 AU at 340 nm and the sample being clear when manually inspected) | + (“+” denotes solubility at the given condition, as determined by UV absorbance being less than 0.1 AU at 340 nm and the sample being clear when manually inspected) | + (“+” denotes solubility at the given condition, as determined by UV absorbance being less than 0.1 AU at 340 nm and the sample being clear when manually inspected) | + (“+” denotes solubility at the given condition, as determined by UV absorbance being less than 0.1 AU at 340 nm and the sample being clear when manually inspected) | + (“+” denotes solubility at the given condition, as determined by UV absorbance being less than 0.1 AU at 340 nm and the sample being clear when manually inspected) |
| CC[C@H](C)[C@H](NC(C)=O)C(=O)N[C@H]1CSSC[C@@H](C(=O)N[C@@H](CCC(=O)O)C(N)=O)NC(=O)[C@H](CCCNC(=N)N)NC(=O)[C@H](Cc2c[nH]cn2)NC(=O)[C@H](CCC(=O)O)NC(=O)CNC(=O)[C@H](Cc2c[nH]c3ccccc23)NC(=O)[C@H](CC(=O)O)NC(=O)[C@H](CCC(N)=O)NC(=O)[C@H](Cc2c[nH]c3ccccc23)NC(=O)[C@H]([C@@H](C)CC)NC1=O [Compound 22] (Ac-ICIWQDWGEHRCE-NH2; disulfide 2-12) | < 100 | + (“+” denotes solubility at the given condition, as determined by UV absorbance being less than 0.1 AU at 340 nm and the sample being clear when manually inspected) | − (“−” denotes lack of solubility at the given condition, as UV absorbance at 340 nm exceeds 0.1 AU and/or it is visibly turbid or contains particles) | − (“−” denotes lack of solubility at the given condition, as UV absorbance at 340 nm exceeds 0.1 AU and/or it is visibly turbid or contains particles) | + (“+” denotes solubility at the given condition, as determined by UV absorbance being less than 0.1 AU at 340 nm and the sample being clear when manually inspected) | + (“+” denotes solubility at the given condition, as determined by UV absorbance being less than 0.1 AU at 340 nm and the sample being clear when manually inspected) |
| CC[C@H](C)[C@@H]1NC(=O)[C@@H](NC(=O)[C@H](Cc2ccccc2)NC(=O)[C@H](C)NC(=O)[C@H](CO)NC(=O)CNC(=O)[C@H](CCC(=O)O)NC(C)=O)CSSC[C@@H](C(=O)N(C)CC(=O)N[C@@H](CCC(=O)O)C(N)=O)NC(=O)[C@H](CCCNC(=N)N)NC(=O)[C@H](Cc2c[nH]cn2)NC(=O)[C@H](CCC(=O)O)NC(=O)CNC(=O)[C@H](Cc2c[nH]c3ccccc23)NC(=O)[C@H](CC(=O)O)NC(=O)[C@H](CCC(N)=O)NC(=O)[C@H](Cc2cn(C)c3ccccc23)NC1=O [Compound 53] (Ac-EGSAFCI[Trp(1-Me)]QDWGEHRC[Sar]E-NH2; disulfide 6-16) | < 100 | − (“−” denotes lack of solubility at the given condition, as UV absorbance at 340 nm exceeds 0.1 AU and/or it is visibly turbid or contains particles) | − (“−” denotes lack of solubility at the given condition, as UV absorbance at 340 nm exceeds 0.1 AU and/or it is visibly turbid or contains particles) | + (“+” denotes solubility at the given condition, as determined by UV absorbance being less than 0.1 AU at 340 nm and the sample being clear when manually inspected) | + (“+” denotes solubility at the given condition, as determined by UV absorbance being less than 0.1 AU at 340 nm and the sample being clear when manually inspected) | + (“+” denotes solubility at the given condition, as determined by UV absorbance being less than 0.1 AU at 340 nm and the sample being clear when manually inspected) |
